The numbers were not newly measured in PMC8954214, “Preparation, Identification, Molecular Docking Study and Protective Function on HUVECs of Novel ACE Inhibitory Peptides from Protein Hydrolysate of Skipjack Tuna Muscle” (Marine Drugs, 2022), which cites them from elsewhere.

The test system of one series is ACE N-domain. Further details: method as in PMID 33340899. To be noted: docking; cited from earlier work.
The subject of the next series is ACE C-domain. Further details: method as in PMID 33340899. To be noted: docking; cited from earlier work.

Regarding LVLL [literature peptide docked to ACE], in the series with ACE N-domain, the N-domain affinity was -7.5 kcal/mol. Besides, the C-domain affinity in the series with ACE C-domain was -8.6 kcal/mol.
With YVVF [literature peptide docked to ACE], the N-domain affinity in the series on ACE N-domain was -8.8 kcal/mol. In addition, in the series on ACE C-domain, the C-domain affinity was -9.8 kcal/mol.
